The source made the active and inactive calls.
Assays:
[1] = molecular target: Luciferin 4-monooxygenase (Photinus pyralis, UniProt P08659); assay: Counter Screen for Luciferase-based Assay Positives. [Related pubchem assays: 620, 618, 411 ]
[2] = Luminescence Cell-Based Dose Response HTS to Identify Inhibitors of 5'UTR Stem-Loop Driven Prion Protein mRNA Translation in H4 Neuroglioblastoma Cells. [Related pubchem assays: 1827 (Project Summary), 1813 (Primary HTS)]; format: functional
[3] = alpha-synuclein stem-loop luciferase translation blockers – H4 neuroglioma cells, luminescence, confirmation (AID 1988); format: functional, cell-based
HT-1080 = assay: HT1080 cell viability loss – fluorescence readout (AID 620); format: functional, cell-based; conditions: Homo sapiens
[4] = molecular target: T1, Oxysterols receptor LXR-beta (Homo sapiens, UniProt P55055); format: functional, cell-based;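 also: Cell-based luminescence dose-response assay of agonist activity at LXR, run as a confirmatory counterscreen to a daf-12 agonist screen; HEK293 cells with Gal4-LXR fusion and GAL4-driven luciferase reporter; agonist potency from rising luciferase signal of a Gal4-LXR reporter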
T1 sequence (P55055 whole entry): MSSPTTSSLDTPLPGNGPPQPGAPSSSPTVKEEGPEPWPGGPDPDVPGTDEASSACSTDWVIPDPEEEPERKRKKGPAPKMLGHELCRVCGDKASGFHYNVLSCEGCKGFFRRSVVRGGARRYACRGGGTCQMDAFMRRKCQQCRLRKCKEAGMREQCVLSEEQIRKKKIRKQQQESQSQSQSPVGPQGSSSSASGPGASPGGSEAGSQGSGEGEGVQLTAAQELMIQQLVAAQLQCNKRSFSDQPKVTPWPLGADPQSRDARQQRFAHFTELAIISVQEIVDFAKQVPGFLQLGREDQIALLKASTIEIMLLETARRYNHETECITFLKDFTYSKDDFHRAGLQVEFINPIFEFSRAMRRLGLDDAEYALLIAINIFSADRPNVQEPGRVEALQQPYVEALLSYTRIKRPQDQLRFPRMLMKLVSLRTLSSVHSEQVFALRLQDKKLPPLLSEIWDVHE

Cytochrome P450 2D6 = Cytochrome P450 2D6 (Homo sapiens, UniProt P10635); assay: qHTS Assay for Inhibitors and Substrates of Cytochrome P450 2D6. [Related pubchem assays: 410 ]; format: ADME; conditions: read-out: Potency
Cytochrome P450 2D6, sequence (P10635 whole entry): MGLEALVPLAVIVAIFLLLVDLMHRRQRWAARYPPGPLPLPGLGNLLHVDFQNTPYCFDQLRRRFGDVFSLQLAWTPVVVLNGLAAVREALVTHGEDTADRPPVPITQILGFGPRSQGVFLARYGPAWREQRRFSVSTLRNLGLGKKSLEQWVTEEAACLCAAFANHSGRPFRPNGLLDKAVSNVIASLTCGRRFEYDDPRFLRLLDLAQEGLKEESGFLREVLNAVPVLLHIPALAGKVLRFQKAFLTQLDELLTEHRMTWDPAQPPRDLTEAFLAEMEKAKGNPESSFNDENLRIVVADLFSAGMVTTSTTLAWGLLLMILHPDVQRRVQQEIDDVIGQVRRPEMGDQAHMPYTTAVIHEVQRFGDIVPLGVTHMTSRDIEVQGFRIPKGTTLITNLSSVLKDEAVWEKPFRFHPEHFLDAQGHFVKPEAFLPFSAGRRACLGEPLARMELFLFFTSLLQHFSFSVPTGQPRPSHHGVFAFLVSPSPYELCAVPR

HEK293 = assay: Fluorescence-based counterscreen for potentiators or agonists of NPY-Y2: cell-based high-throughput dose response assay to identify inhibitors of cyclic nucleotide gated ion channel (CNGC) activity. In this assay, the parental HEK293 cell line transfected with a cyclic-nucleotide gated ion channel (CNGC)-based cAMP sensor is used to measure inhibition of isoproterenol-induced CNGC activity by test compound.; format: functional; conditions: Homo sapiens;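 also: stimulus is 1 µM isoproterenol at EC100 plus PDE inhibitor Ro 20-1724 at 25 µM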
[5] = molecular target: Neuropeptide Y receptor type 2 (Homo sapiens, UniProt P49146); assay: Fluorescence-based cell-based high-throughput dose response assay for agonists of NPY-Y2. [Related pubchem assays: 1703 (Screening assay (CNGC inhibitors).), 1359 (Screening assay (NPY-Y2 potentiators or agonists).), 1304 (Screening assay (NPY-Y1 potentiators or agonists).), 1710 (Screening assay (NPY-Y2 agonists).), 1791 (Summary AID.)]; format: functional
Neuropeptide Y receptor type 2, sequence (P49146 whole entry): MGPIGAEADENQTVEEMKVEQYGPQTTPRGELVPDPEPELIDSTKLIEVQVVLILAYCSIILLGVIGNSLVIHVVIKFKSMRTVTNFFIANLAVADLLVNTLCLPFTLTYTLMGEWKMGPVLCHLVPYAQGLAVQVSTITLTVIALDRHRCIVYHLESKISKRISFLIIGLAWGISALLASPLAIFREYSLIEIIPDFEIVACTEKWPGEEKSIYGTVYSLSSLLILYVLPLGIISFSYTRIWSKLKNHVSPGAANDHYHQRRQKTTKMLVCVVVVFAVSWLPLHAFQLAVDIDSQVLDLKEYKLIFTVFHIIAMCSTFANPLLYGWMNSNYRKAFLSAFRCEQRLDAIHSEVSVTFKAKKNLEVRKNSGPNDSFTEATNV

[6] = molecular target: Neuropeptide Y receptor type 1 (Homo sapiens, UniProt P25929); assay: Fluorescence-based counterscreen for agonists of NPY-Y2: cell-based high-throughput dose response assay for agonists of NPY-Y1.; format: functional
Neuropeptide Y receptor type 1, sequence (P25929 whole entry): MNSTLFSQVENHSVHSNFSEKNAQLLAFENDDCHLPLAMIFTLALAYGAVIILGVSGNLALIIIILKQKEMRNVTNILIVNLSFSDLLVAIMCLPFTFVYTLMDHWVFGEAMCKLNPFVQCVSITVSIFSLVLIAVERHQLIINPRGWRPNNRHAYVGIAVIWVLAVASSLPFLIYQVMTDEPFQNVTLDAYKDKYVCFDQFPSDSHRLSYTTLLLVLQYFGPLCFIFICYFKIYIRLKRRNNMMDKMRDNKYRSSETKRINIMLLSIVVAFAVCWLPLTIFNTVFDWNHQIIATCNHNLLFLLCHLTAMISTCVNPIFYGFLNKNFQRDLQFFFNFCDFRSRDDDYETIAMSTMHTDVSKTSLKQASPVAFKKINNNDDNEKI

[7] = molecular target: Lysosomal acid glucosylceramidase (Homo sapiens, UniProt P04062); assay: Dose response cell-based high throughput screening assay to identify enhancers of beta-glucosidase activity. [Related pubchem assays: 784 ]; format: functional
Lysosomal acid glucosylceramidase, sequence (P04062 whole entry): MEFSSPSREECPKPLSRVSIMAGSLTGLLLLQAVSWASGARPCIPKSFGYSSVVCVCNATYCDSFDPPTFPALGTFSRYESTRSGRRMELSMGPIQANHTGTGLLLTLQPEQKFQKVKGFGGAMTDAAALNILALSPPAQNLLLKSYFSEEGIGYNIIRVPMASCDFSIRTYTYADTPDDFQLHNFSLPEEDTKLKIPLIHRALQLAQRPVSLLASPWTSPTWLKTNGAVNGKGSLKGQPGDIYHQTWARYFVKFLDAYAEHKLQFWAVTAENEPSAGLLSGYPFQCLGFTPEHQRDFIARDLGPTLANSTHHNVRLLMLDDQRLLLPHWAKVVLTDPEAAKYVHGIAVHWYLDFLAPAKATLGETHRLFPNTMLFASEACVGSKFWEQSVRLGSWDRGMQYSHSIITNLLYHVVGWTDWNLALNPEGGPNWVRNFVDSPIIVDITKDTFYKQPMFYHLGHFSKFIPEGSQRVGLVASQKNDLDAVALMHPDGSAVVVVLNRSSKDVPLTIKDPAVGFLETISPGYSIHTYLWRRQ

[8] = antiviral protection against BTV-induced cell death – arbovirus, BSR cells, confirmation (AID 1250); format: functional;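 also: protection from viral cytopathic effect measured as cell viability by ATP luminescence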
Staphylococcus aureus = assay: Inhibitors of Bacterial Quorum Sensing Structure Activity Relationship (SAR) Analysis: Dose Response Assay. [Related pubchem assays: 700, 527 ]; format: functional, organism-based

Luciferin 4-monooxygenase, sequence (P08659 whole entry): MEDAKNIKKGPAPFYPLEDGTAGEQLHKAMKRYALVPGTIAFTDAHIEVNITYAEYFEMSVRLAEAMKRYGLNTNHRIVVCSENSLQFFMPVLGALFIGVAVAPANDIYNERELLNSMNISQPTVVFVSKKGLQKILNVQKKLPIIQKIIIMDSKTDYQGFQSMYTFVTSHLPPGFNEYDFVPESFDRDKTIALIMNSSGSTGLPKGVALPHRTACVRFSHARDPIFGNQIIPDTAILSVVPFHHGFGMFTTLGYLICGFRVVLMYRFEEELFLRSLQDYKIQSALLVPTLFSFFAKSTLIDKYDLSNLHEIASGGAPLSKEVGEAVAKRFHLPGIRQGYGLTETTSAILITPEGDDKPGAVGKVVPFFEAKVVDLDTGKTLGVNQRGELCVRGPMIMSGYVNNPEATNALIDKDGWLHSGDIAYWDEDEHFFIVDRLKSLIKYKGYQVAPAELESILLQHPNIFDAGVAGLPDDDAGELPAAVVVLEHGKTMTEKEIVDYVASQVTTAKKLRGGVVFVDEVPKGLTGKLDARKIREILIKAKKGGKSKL

With `Cc1ccc(-c2nc3n(n2)Cc2ccccc2-3)cc1` the EC50 [1] was 2.87 µM (active), the EC50 [2] was 364 nM (active) and the EC50 [3] was 6.59 µM (active). The EC50 (HT-1080) was > 50 µM (not active), the EC50 [4] was > 67.5 µM (inactive) and the EC50 (cells) was > 67.5 µM (inactive).

In the case of `CCOC(=O)OCC1C=C[C@H](c2cc(-c3ccccc3)ccc2O)C(c2ccc(C(C)=O)cc2)O1` (stereo partly drawn), the AC50 (Cytochrome P450 2D6) is reported as 6.31 µM (inconclusive).

In the case of `O=C(Nc1sc2c(c1-c1nc3ccccc3[nH]1)CCCC2)C1CC1`, the EC50 (HEK293) is reported as > 35.4 µM (not active), the EC50 [5] is reported as > 35.4 µM (not active) and the EC50 [6] is reported as 17.3 µM (not active).

For `COC(=O)c1cn(C(=O)c2cccs2)c2ccccc12`, the EC50 [7] was > 50 µM (not active).

For `C=CCN(CC=C)C(=S)NC(=O)Cc1cccc2ccccc12`, the IC50 [8] was 31.6 µM (active).

With `CCCCc1oc2ccccc2c1C(=O)c1ccc(O)cc1` the IC50 (Staphylococcus aureus) was 544 nM (active).
